Data from the supplement of paper PMC10307832.

Assays:
Experiment in all cases: relative viability (nuclei count vs DMSO), 5 days (fraction); higher = more cells survive
AZ3146 + Pictilisib = compound: CN1CCC(CC1)OC2=CC(=C(C=C2)NC3=NC=C4C(=N3)N(C(=O)N4C)C5CCCC5)OC [AZ3146] + CS(=O)(=O)N1CCN(Cc2cc3nc(-c4cccc5[nH]ncc45)nc(N4CCOCC4)c3s2)CC1 [Pictilisib] (partner 1 µM)
Summary of the method: (§1)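 Medians of duplicate plates are given as relative viability. That measure is the nuclei count in treated wells divided by the count in vehicle wells. Counts were taken on 4× images of lung cancer cell lines in 1536-well plates, 5 days after pin-tool dosing the day after seeding with one drug alone or a fixed anchor-drug dose plus five library-drug doses (not always all listed) in √10 steps.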

GSK-J4 + Foretinib = compound: CCOC(=O)CCNc1cc(N2CCc3ccccc3CC2)nc(-c2ccccn2)n1 [GSK-J4] + COc1cc2c(Oc3ccc(NC(=O)C4(C(=O)Nc5ccc(F)cc5)CC4)cc3F)ccnc2cc1OCCCN1CCOCC1 [Foretinib] (partner 0.25 µM)
Summary of the method: as §1

GSK-J4 + Crizotinib = compound: CCOC(=O)CCNc1cc(N2CCc3ccccc3CC2)nc(-c2ccccn2)n1 [GSK-J4] + C[C@@H](Oc1cc(-c2cnn(C3CCNCC3)c2)cnc1N)c1c(Cl)ccc(F)c1Cl [Crizotinib] (partner 1 µM)
Summary of the method: as §1

GSK-J4 + Linsitinib = compound: CCOC(=O)CCNc1cc(N2CCc3ccccc3CC2)nc(-c2ccccn2)n1 [GSK-J4] + C[C@]1(O)C[C@@H](c2nc(-c3ccc4ccc(-c5ccccc5)nc4c3)c3c(N)nccn32)C1 [Linsitinib] (partner 1 µM)
Summary of the method: as §1

Row | Cell Line | relative viability (AZ3146 + Pictilisib; first compound 0.08 µM) | relative viability (AZ3146 + Pictilisib; first compound 0.253 µM) | relative viability (AZ3146 + Pictilisib; first compound 0.8 µM) | relative viability (AZ3146 + Pictilisib; first compound 2.53 µM) | relative viability (AZ3146 + Pictilisib; first compound 8 µM) | relative viability (GSK-J4 + Foretinib; first compound 0.5 µM) | relative viability (GSK-J4 + Foretinib; first compound 1.581 µM) | relative viability (GSK-J4 + Foretinib; first compound 5 µM) | relative viability (GSK-J4 + Foretinib; first compound 15.81 µM) | relative viability (GSK-J4 + Foretinib; first compound 50 µM) | relative viability (GSK-J4 + Crizotinib; first compound 0.5 µM) | relative viability (GSK-J4 + Crizotinib; first compound 1.581 µM) | relative viability (GSK-J4 + Crizotinib; first compound 5 µM) | relative viability (GSK-J4 + Crizotinib; first compound 15.81 µM) | relative viability (GSK-J4 + Crizotinib; first compound 50 µM) | relative viability (GSK-J4 + Linsitinib; first compound 0.5 µM) | relative viability (GSK-J4 + Linsitinib; first compound 1.581 µM) | relative viability (GSK-J4 + Linsitinib; first compound 5 µM) | relative viability (GSK-J4 + Linsitinib; first compound 15.81 µM) | relative viability (GSK-J4 + Linsitinib; first compound 50 µM)
1 | NCI-H2023 | 0.241 | 0.285 | 0.19 | 0.265 | 0.202 | 0.759 | 0.737 | 1.11 | 0.735 | 0.709 | 0.542 | 0.621 | 0.678 | 0.597 | 0.654 | 0.658 | 0.675 | 0.815 | 0.582 | 0.674
2 | NCI-H460 | 0.293 | 0.323 | 0.297 | 0.416 | 0.461 | 0.977 | 0.81 | 0.732 | 1 | 0.871 | 0.983 | 0.734 | 0.832 | 0.321 | 0.821 | 0.821 | 0.584 | 0.836 | 0.691 | 0.581
3 | PC-3 [JPC-3] | 0.669 | 0.651 | 0.766 | 0.8 | 0.681 | 0.96 | 1.01 | 1.01 | 0.959 | 0.762 | 0.912 | 0.882 | 0.952 | 0.926 | 0.814 | 0.883 | 0.928 | 0.961 | 0.908 | 0.945
4 | HCC-15 | 0.721 | 0.773 | 0.765 | 0.737 | 0.728 | 0.949 |  | 0.898 | 0.854 | 0.69 | 0.755 | 0.733 | 0.778 | 0.757 | 0.536 | 0.845 | 0.793 | 0.892 | 0.785 | 0.629
5 | NCI-H2228 | 0.412 | 0.306 | 0.349 | 0.282 | 0.314 | 0.764 | 1.03 | 0.854 | 0.817 | 1.06 | 0.609 | 0.345 | 0.497 | 0.535 | 0.423 | 0.483 | 0.721 | 0.748 | 0.746 | 1.04
6 | NCI-H1650 | 0.52 | 0.671 | 0.53 | 0.535 | 0.493 | 1.07 | 0.456 | 1.18 | 1.03 | 0.949 | 0.847 | 0.962 | 0.862 | 0.935 | 0.721 |  |  |  |  | 
7 | NCI-H2342 |  |  |  |  |  | 1.02 | 1.02 | 1.11 | 1.01 | 1.11 |  |  |  |  |  |  |  |  |  | 
8 | NCI-H2170 | 0.297 | 0.315 | 0.327 | 0.297 | 0.243 | 0.949 | 0.983 | 0.917 | 1.02 | 0.958 | 1.09 | 1.14 | 1.19 | 1.09 | 1.11 |  |  |  |  | 
9 | NCI-H1793 | 0.298 | 0.376 | 0.278 | 0.469 | 0.261 | 0.801 | 0.575 | 0.737 | 0.423 | 0.514 |  |  |  |  |  | 0.973 | 0.71 | 0.94 | 0.594 | 0.493
10 | NCI-H1395 | 0.536 | 0.628 | 0.539 | 0.623 | 0.726 | 0.937 | 0.983 | 0.865 | 0.973 | 0.946 |  |  |  |  |  | 1.06 | 1.22 | 0.877 | 0.813 | 0.745
11 | SW 900 |  |  |  |  |  | 0.681 | 0.836 | 1.05 | 0.591 | 0.431 |  |  |  |  |  |  |  |  |  | 
